Measured values taken from US20230240290A1, “USE OF (Z)-3-HEXENYL ESTERS AND METHOD FOR PROTECTING PLANTS AGAINST PESTS” (UNIVERSITAT POLITÈCNICA DE VALÈNCIA, priority 2020, published 2023).
“Also recorded” adds a separate entry of the source.

Experiments:
Tuta absoluta = assay: Laying of Tuta absoluta on exposed tomato plants; format: in vivo; conditions: T. absoluta, 72 hours; permanent exposure
Procedure: It was also studied whether the defensive activation induced by exposure to (Z)-3-hexenyl propanoate could influence the development of two highly important phytophages in tomato cultivation, the red spider, T. urticae, and the lepidoptera T. absoluta. The individuals used in these experiments came from the captive breeding of these species that are kept in the IVIA described above. The exposure time of the plant to the volatile was tested on both phytophages in two different ways, one where the plant was only exposed to the volatile for 24 hours and then the herbivore to be assayed was immediately released, and the other where the volatile was permanently exposed throughout the experiment.
For this purpose, two climatic chambers were used under the same environmental conditions [25±2° C., 65±5% HR and 14:10 h (L:D) photoperiod], wherein, to avoid interference between the volatiles, one was assigned to the (Z)-3-hexenyl propanoate treatments and one to the control treatment. […]
Two consecutive experiments were performed to assess the effect of exposure to both volatiles on T. absoluta. […] The laying of T. absoluta was assessed in 8 tomato plants (cv. Moneymaker) per treatment. […] After this time, T. absoluta adults were removed, and the number of eggs was counted.

Nesidiocoris tenuis = conditions: in vivo
Procedure: To know the behavior of the dispensers loaded with (Z)-3-hexenyl propionate under real cultivation conditions, four commercial greenhouses for tomato cv Raf located in Xilxes (Castellón province), with a history of problems with T. absoluta contamination at the end of winter, were selected. An experimental design of randomized blocks was carried out where each greenhouse was considered a block with two treatments per block and 4 repetitions per treatment. […]
Twenty plants randomly chosen by repetition were sampled weekly for 11 weeks, beginning 30 Jan. […] First, the number of leaflets infested by T. absoluta per plant was counted. Then the number of N. tenuis (adults and nymphs) throughout the apical third of each plant (leaves, flowers and shoots) was counted. Following the methodology described above, 6 samples were taken from the apical part of each plant per repetition, and these samples were immediately introduced into liquid nitrogen to quantify the expression of the PR1 and PIN2 genes (described in Example 1 and Example 2). The expression of these genes was quantified one day before, 4, and 8 weeks after hanging the dispensers in the greenhouses.

Tamarixia radiata = assay: Y-tube olfactometer preference, exposed vs intact Carrizo citrange plants; format: in vivo; conditions: plants exposed 24 h vs intact plants
Procedure: To assess the preference of D. citri females and the parasitoid T. radiata to Carrizo citrange plants that were previously exposed for 24 h to (Z)-3-HP in relation to intact plants, a Y-shaped olfactometer was used in the same way as that described in Example 1, and the plants were exposed to both volatiles as described above with the use of pieces of filter paper. A total of 40 valid replicates were recorded for each species for each pair of odor sources. Each individual was tested only once. […] After recording five responses, the Y-tube was rinsed with soapy water, cleaned with acetone, and allowed to dry for 5 minutes. The odor sources were later switched between the left and right side arms to minimize any spatial effect on choice. The two types of plants (intact and induced) were used only once to assess the response of 10 females and were then replaced with new plants. The Y-tube experiment was performed under the following environmental conditions: 25±1° C. and 60±10% RH.
The D. citri adults were obtained from a colony established at SWFREC (University of Florida), initially originating from citrus fruits located in their experimental plots. The parasitoids were collected in these experimental fields. Newly emerged adult females less than 5 days old were used in all the assays.

CC/C=C\CCOC(=O)CC [(Z)-3-hexenyl propanoate]
Reduction in laying compared to the control (Tuta absoluta): 67.2±15.0%
Population of the plant bug N. tenuis, treatment vs control (Nesidiocoris tenuis): remained the same
Response of Tamarixia radiata females to exposed citrus plants (Tamarixia radiata): highly attractive; also recorded: more attractive
